From patent US20060188938A1, “Compounds for inhibiting beta-amyloid production and methods of identifying the compounds” (priority 2005, published 2006)

How the values were obtained:
[1] = test system: β-amyloid production by 7W WT APP751 CHO cells; test: Screening of NF-kB activation inhibitors, Aβ1-40 and Aβ1-42 ELISA (Example 3); assay type: cell-based, Chinese hamster; conditions: 24 hours (FIG. 6)
Experimental: Most of the compounds screened can be obtained as Calbiochem products from EMD Biosciences, Inc., La Jolla, Calif. R—and S-Niguldipine are available e.g., from Tocris Cookson Inc., Ellisville, Mo. CAPE and Artemisinin are available, e.g., as a Sigma product from Sigma-Aldrich Corp., St. Louis, Mo.
Each compound was dissolved in DMSO. 7W WT APP751 CHO cells overexpressing APP751 were plated into 96-well culture plates in 200 μL of culture medium. Each compound from the library was added to confluent cells to a final concentration of 500 nM, 1 μM, 5 μM, 10 μM and/or 30 μM. After 24 hours of treatment, culture medium was collected and dissolved 10-fold and 2-fold for measuring the level of Aβ1-40 and Aβ1-42, respectively. Aβ1-40 and Aβ1-42 were determined using commercially available ELISAs (Biosource, CA), following the recommendations of the manufacturer.

Row | Structure (SMILES) | concentration of Aβ1-40 compared to controls ([1]; 5 μM) | concentration of Aβ1-42 compared to controls ([1]; 5 μM) | concentration of total β-amyloid compared to controls ([1]; 5 μM) | melting point [°C] | other results
1 | COC(=O)C1=C(C)NC(C)=C(C(=O)OCCCN2CCC(c3ccccc3)(c3ccccc3)CC2)[C@H]1c1cccc([N+](=O)[O-])c1.Cl [(S)-(+)-niguldipine] | significantly decreased | significantly decreased | significantly decreased |  | concentration of Aβ1-40 compared to controls ([1]; 1 μM): significantly decreased; concentration of Aβ1-42 compared to controls ([1]; 1 μM): significantly decreased; concentration of total β-amyloid compared to controls ([1]; 1 μM): significantly decreased; concentration of Aβ1-40 compared to controls ([1]; 30 μM): significantly decreased; concentration of Aβ1-42 compared to controls ([1]; 30 μM): significantly decreased; concentration of total β-amyloid compared to controls ([1]; 30 μM): significantly decreased
2 | COC(=O)C1=C(C)NC(C)=C(C(C)=O)C1c1ccccc1Br (stereo not shown) [Example 59, Methyl 5-acetyl-4-(2-bromophenyl)-1,4-dihydro-2,6-dimethylpyridine-3-carboxylate] |  |  |  | 146 to 148 | 
3 | CCOC(=O)C1=C(C)NC(C)=C(C(=O)OC)C1c1ccccc1Br (stereo not shown) [Example 58, 3-Ethyl 5-methyl 4-(2-bromophenyl)-1,4-dihydro-2,6-dimethylpyridine-3,5-dicarboxylate] |  |  |  | 134.5 to 135.5 | 
4 | CC1=C(C(=O)OC(C)(C)C)C(c2ccccc2Br)C(C(=O)OC(C)(C)C)=C(C)N1 [Example 14, Di-tert-butyl 4-(2-bromophenyl)-1,4-dihydro-2,6-dimethylpyridine-3,5-dicarboxylate] |  |  |  | 162 to 164 | 
5 | C=C1C(=O)[C@@]23[C@H](O)C[C@@H]4C(C)(C)CC[C@H](O)[C@@]4(CO)[C@@H]2CC[C@@H]1[C@H]3O [kamebakaurin] |  |  |  |  | concentration of Aβ1-40 compared to controls ([1]; 10 μM): significantly decreased; concentration of Aβ1-42 compared to controls ([1]; 10 μM): significantly decreased; concentration of total β-amyloid compared to controls ([1]; 10 μM): significantly decreased; concentration of Aβ1-40 compared to controls ([1]; 30 μM): significantly decreased; concentration of Aβ1-42 compared to controls ([1]; 30 μM): significantly decreased; concentration of total β-amyloid compared to controls ([1]; 30 μM): significantly decreased
6 | CCOC(=O)C1=C(C)NC(C)=C(C(=O)OCC)C1c1ccc(Br)cc1F [Example 43, Diethyl 4-(4-bromo-2-fluorophenyl)-1,4-dihydro-2,6-dimethylpyridine-3,5-dicarboxylate] |  |  |  | 154 to 155 | 
7 | CC1=C(C(=O)OC(C)(C)C)C(c2ccc(Br)cc2F)C(C(=O)OC(C)(C)C)=C(C)N1 [Example 44, Di-tert-butyl 4-(4-bromo-2-fluorophenyl)-1,4-dihydro-2,6-dimethylpyridine-3,5-dicarboxylate] |  |  |  | 187 to 188 | 
8 | COCC1=C(C(=O)OC)C(c2ccccc2Cl)C(C(=O)OC)=C(COC)N1 [Example 17, Dimethyl 4-(2-chlorophenyl)-1,4-dihydro-2,6-bis(methoxymethyl)pyridine-3,5-dicarboxylate] |  |  |  | 137 to 138 | 
9 | CC1=C(C(=O)OC(C)(C)C)C(c2ccccc2[N+](=O)[O-])C(C(=O)OC(C)(C)C)=C(C)N1 [Example 15, Di-tert-butyl 1,4-dihydro-2,6-dimethyl-4-(2-nitrophenyl)pyridine-3,5-dicarboxylate] |  |  |  | 159 to 161 | 
10 | COC(=O)C1=C(C)NC(C)=C(C(=O)OCCCN2CCC(c3ccccc3)(c3ccccc3)CC2)[C@@H]1c1cccc([N+](=O)[O-])c1.Cl [R-niguldipine] | significantly decreased | significantly decreased | significantly decreased |  | concentration of Aβ1-40 compared to controls ([1]; 1 μM): significantly decreased; concentration of Aβ1-42 compared to controls ([1]; 1 μM): significantly decreased; concentration of total β-amyloid compared to controls ([1]; 1 μM): significantly decreased; concentration of Aβ1-40 compared to controls ([1]; 30 μM): significantly decreased; concentration of Aβ1-42 compared to controls ([1]; 30 μM): significantly decreased; concentration of total β-amyloid compared to controls ([1]; 30 μM): significantly decreased
11 | CC1=C(O)C(=O)C=C2C1=CC=C1[C@@]2(C)CC[C@@]2(C)[C@@H]3C[C@](C)(C(=O)O)CC[C@]3(C)CC[C@]12C [celastrol] | significantly decreased | significantly decreased | significantly decreased |  | concentration of Aβ1-40 compared to controls ([1]; 500 nM): significantly decreased; concentration of Aβ1-42 compared to controls ([1]; 500 nM): significantly decreased; concentration of total β-amyloid compared to controls ([1]; 500 nM): significantly decreased
12 | CC1=C(C(=O)OC(C)(C)C)C(c2ccc(F)c(Br)c2)C(C(=O)OC(C)(C)C)=C(C)N1 [Example 42, Di-tert-butyl 4-(3-bromo-4-fluorophenyl)-1,4-dihydro-2,6-dimethylpyridine-3,5-dicarboxylate] |  |  |  | 171 to 172 | 
13 | COC(=O)C1=C(C)NC(C)=C(C(=O)OC)C1c1ccccc1Cl [Example 8, Dimethyl 4-(2-chlorophenyl)-1,4-dihydro-2,6-dimethylpyridine-3,5-dicarboxylate] |  |  |  | 188 to 189 | 
14 | CC1=C(C(=O)OC(C)(C)C)C(c2cccc(F)c2)C(C(=O)OC(C)(C)C)=C(C)N1 [Example 50, Di-tert-butyl 4-(3-fluorophenyl)-1,4-dihydro-2,6-dimethylpyridine-3,5-dicarboxylate] |  |  |  | 178 to 179 | 
15 | CCOC(=O)C1=C(C)NC(C)=C(C(=O)OCC)C1c1ccccc1F [Example 12, Diethyl 4-(2-fluorophenyl)-1,4-dihydro-2,6-dimethylpyridine-3,5-dicarboxylate] |  |  |  | 151 to 152.5 | 
16 | CC1=C(C(=O)OC(C)(C)C)C(c2cccc(Br)c2)C(C(=O)OC(C)(C)C)=C(C)N1 [Example 25, Di-tert-butyl 4-(3-bromophenyl)-1,4-dihydro-2,6-dimethylpyridine-3,5-dicarboxylate] |  |  |  | 195 to 196 | 
17 | NC(=O)Nc1sc(-c2ccc(F)cc2)cc1C(N)=O [IKK-2 Inhibitor IV] | significantly decreased | significantly decreased | significantly decreased |  | concentration of Aβ1-40 compared to controls ([1]; 500 nM): significantly decreased; concentration of Aβ1-42 compared to controls ([1]; 500 nM): significantly decreased; concentration of total β-amyloid compared to controls ([1]; 500 nM): significantly decreased
18 | CCOC(=O)C1=C(C)NC(C)=C(C(=O)OCC)C1c1cccc(F)c1F [Example 38, Diethyl 4-(2,3-difluorophenyl)-1,4-dihydro-2,6-dimethylpyridine-3,5-dicarboxylate] |  |  |  | 161 to 162 | 
19 | Nc1ccc2ncnc(NCCc3ccc(Oc4ccccc4)cc3)c2c1 [6-amino-4-(4-phenoxyphenylethylamino)quinazoline] | significantly decreased | significantly decreased | significantly decreased |  | concentration of Aβ1-40 compared to controls ([1]; 500 nM): significantly decreased; concentration of Aβ1-42 compared to controls ([1]; 500 nM): significantly decreased; concentration of total β-amyloid compared to controls ([1]; 500 nM): significantly decreased
20 | C=C1C(=O)O[C@@H]2C[C@@]3(C)CCCC(=C)[C@@H]3C[C@H]12 [isohelenin] | significantly decreased | significantly decreased | significantly decreased |  | concentration of Aβ1-40 compared to controls ([1]; 10 μM): significantly decreased; concentration of Aβ1-42 compared to controls ([1]; 10 μM): significantly decreased; concentration of total β-amyloid compared to controls ([1]; 10 μM): significantly decreased
